Laboratory results: ChEMBL document CHEMBL2401618 (Eur J Med Chem, 2013)
pIC50: −log10 of the molar value.

Legend:
[1] = Safety index, ratio of IC50 for african green monkey Vero cells to IC50 for promastigote stage of Leishmania donovani LV9; format: toxicity, cell-based; details: read-out: Ratio IC50
[2] = system: Vero; test: Cytotoxicity against african green monkey Vero cells assessed as growth inhibition after 72 hrs by MTS assay; format: cell-based; details: Chlorocebus sabaeus
[3] = system: Leishmania donovani; test: Leishmanicidal activity against promastigote stage of Leishmania donovani LV9 assessed as cell viability by MTT assay; format: functional, organism-based
[4] = system: Plasmodium falciparum; test: Antiplasmodial activity against chloroquine-resistant Plasmodium falciparum FcB1/Columbia infected in human erythrocytes assessed as parasite growth inhibition at 1 ug/ml after 24 hrs by [3H]-hypoxanthine incorporation assay relative to control; format: functional; details: read-out: GI
[5] = system: Plasmodium falciparum; test: Antiplasmodial activity against chloroquine-resistant Plasmodium falciparum FcB1/Columbia infected in human erythrocytes assessed as parasite growth inhibition at 10 ug/ml after 24 hrs by [3H]-hypoxanthine incorporation assay relative to control; format: functional; details: read-out: GI
[6] = system: Trypanosoma brucei brucei; test: Antitrypanosomal activity against bloodstream stage of Trypanosoma brucei brucei 93 assessed as parasite growth inhibition at 1 ug/ml after 72 hrs by resazurin reduction assay relative to control; format: functional; details: Trypanosoma brucei, 93, 72 h; read-out: GI
[7] = system: Trypanosoma brucei brucei; test: Antitrypanosomal activity against bloodstream stage of Trypanosoma brucei brucei 93 assessed as parasite growth inhibition at 10 ug/ml after 72 hrs by resazurin reduction assay relative to control; format: functional; details: Trypanosoma brucei, 93, 72 h; read-out: GI
[8] = system: Trypanosoma brucei brucei; test: Antitrypanosomal activity against bloodstream stage of Trypanosoma brucei brucei 93 assessed as parasite growth inhibition at 50 ug/ml after 72 hrs by resazurin reduction assay relative to control; format: functional; details: Trypanosoma brucei, 93, 72 h; read-out: GI
[9] = system: Plasmodium falciparum; test: Antiplasmodial activity against chloroquine-resistant Plasmodium falciparum FcB1/Columbia infected in human erythrocytes assessed as parasite growth inhibition at 50 ug/ml after 24 hrs by [3H]-hypoxanthine incorporation assay relative to control; format: functional; details: read-out: GI
[10] = Safety index, ratio of IC50 for african green monkey Vero cells to IC50 for bloodstream stage of Trypanosoma brucei brucei 93; format: toxicity, cell-based; details: read-out: Ratio IC50
[11] = system: Trypanosoma brucei brucei; test: Antitrypanosomal activity against bloodstream stage of Trypanosoma brucei brucei 93 assessed as parasite growth inhibition after 72 hrs by resazurin reduction assay; format: functional, organism-based; details: Trypanosoma brucei, 93, 72 h
[12] = Safety index, ratio of IC50 for african green monkey Vero cells to IC50 for chloroquine-resistant Plasmodium falciparum FcB1/Columbia infected in human erythrocytes; format: toxicity, cell-based; details: read-out: Ratio IC50
[13] = system: Plasmodium falciparum; test: Antiplasmodial activity against chloroquine-resistant Plasmodium falciparum FcB1/Columbia infected in human erythrocytes assessed as parasite growth inhibition after 24 hrs by [3H]-hypoxanthine incorporation assay; format: functional, organism-based

| SMILES | selectivity ratio [1] | pIC50 [2] | pIC50 [3] | inhibition of growth at 1 µg/mL [4] [%] | inhibition of growth at 10 µg/mL [5] [%] | inhibition of growth at 1 µg/mL [6] [%] | inhibition of growth at 10 µg/mL [7] [%] | inhibition of growth at 50 µg/mL [8] [%] | inhibition of growth at 50 µg/mL [9] [%] | selectivity ratio [10] | pIC50 [11] | selectivity ratio [12] | pIC50 [13] |
| --- | --- | --- | --- | --- | --- | --- | --- | --- | --- | --- | --- | --- | --- |
| COc1ccc(C(=O)C2=C(O)[C@]3(CC=C(C)C)C[C@H](CC=C(C)C)[C@@](C)(CCC=C(C)C)[C@](CC=C(C)C)(C2=O)C3=O)cc1OC | 1.8 | 4.66 | 4.91 | 13.8 | 59.2 | 17.7 | 96.3 | 94 | 99.3 |  |  |  |  |
| COCOc1ccc(C(=O)C2=C(O)[C@]3(CC=C(C)C)C[C@H](CC=C(C)C)[C@@](C)(CCC=C(C)C)[C@](CC=C(C)C)(C2=O)C3=O)cc1OCOC |  |  | 4.63 | 7.94 | 20.9 | 6.82 | 95.5 | 93.2 | 99.5 |  |  |  |  |
| CC(C)=CCC[C@]1(C)[C@@H](CC=C(C)C)C[C@]2(CC=C(C)C)C(=O)[C@@]1(CC=C(C)C)C(=O)C(C(=O)c1ccc(OCc3ccccc3)c(OCc3ccccc3)c1)=C2O | < 0.3 | 4.49 | < 4.00 | 7.07 | 38.6 | 32.8 | 94.8 | 94.9 | 99.1 | 10.1 | 5.49 |  |  |
| COc1ccc([N+](=O)[O-])cc1COc1ccc(C(=O)C2=C(O)[C@]3(CC=C(C)C)C[C@H](CC=C(C)C)[C@@](C)(CCC=C(C)C)[C@](CC=C(C)C)(C2=O)C3=O)cc1OCc1cc([N+](=O)[O-])ccc1OC |  |  | < 4.00 | 13.7 | 20.1 | 9.11 | 51.9 | 93 | 79.1 |  |  |  |  |
| CC(=O)Oc1cc(C(=O)C2=C(O)[C@]3(CC=C(C)C)C[C@H](CC=C(C)C)[C@@](C)(CCC=C(C)C)[C@](CC=C(C)C)(C2=O)C3=O)ccc1O | 0.8 | 5.39 | 5.30 | 9 | 96.7 | 47 | 97.3 | 95.5 | 99.1 | 2.3 | 5.75 | 0.9 | 5.36 |
| CC(=O)Oc1ccc(C(=O)C2=C(O)[C@]3(CC=C(C)C)C[C@H](CC=C(C)C)[C@@](C)(CCC=C(C)C)[C@](CC=C(C)C)(C2=O)C3=O)cc1OC(C)=O |  | 5.42 |  | 14.9 | 97.5 | 38.5 | 97.2 | 93.3 | 99.7 | 1.3 | 5.53 | 1.1 | 5.44 |
| CCCC(=O)Oc1ccc(C(=O)C2=C(O)[C@]3(CC=C(C)C)C[C@H](CC=C(C)C)[C@@](C)(CCC=C(C)C)[C@](CC=C(C)C)(C2=O)C3=O)cc1OC(=O)CCC | 0.6 | 5.10 | 4.87 | -0.82 | 96.5 | 35 | 96.2 | 94.9 | 99.7 | 3 | 5.58 | 1.6 | 5.30 |
| CC(C)=CCC[C@]1(C)[C@@H](CC=C(C)C)C[C@]2(CC=C(C)C)C(=O)[C@@]1(CC=C(C)C)C(=O)C(C(=O)c1ccc(OC(=O)C=C(C)C)c(OC(=O)C=C(C)C)c1)=C2O |  |  | 4.54 | 3.6 | 31.6 | 10.5 | 92 | 96.1 | 94.9 |  |  |  |  |
| CC(C)=CCC[C@]1(C)[C@@H](CC=C(C)C)C[C@]2(CC=C(C)C)C(=O)[C@@]1(CC=C(C)C)C(=O)C(C(=O)c1ccc(OCCC3OCCO3)c(O)c1)=C2O [14-O-2-ETHYL-1,3-DIOXOLANE-GUTTIFERONE A] |  |  | 4.65 | 15.3 | 49.1 | 8.18 | 96.4 | 94.9 | 99.6 |  |  |  |  |
| COc1ccc([N+](=O)[O-])cc1COc1ccc(C(=O)C2=C(O)[C@]3(CC=C(C)C)C[C@H](CC=C(C)C)[C@@](C)(CCC=C(C)C)[C@](CC=C(C)C)(C2=O)C3=O)cc1O [14-O-2-METHOXY-5-NITROBENZYL-GUTTIFERONE A] |  |  | < 4.00 | 6.06 | 14.6 | 8.4 | 88.9 | 96.1 | 97.4 |  |  |  |  |
| C=CCOc1ccc(C(=O)C2=C(O)[C@]3(CC=C(C)C)C[C@H](CC=C(C)C)[C@@](C)(CCC=C(C)C)[C@](CC=C(C)C)(C2=O)C3=O)cc1O [14-O-ALLYL-GUTTIFERONE A] |  |  | 4.80 | 0.83 | 11 | 20.3 | 95.1 | 92.6 | 99.5 |  |  |  |  |
| CC(C)=CCC[C@]1(C)[C@@H](CC=C(C)C)C[C@]2(CC=C(C)C)C(=O)[C@@]1(CC=C(C)C)C(=O)C(C(=O)c1ccc(OCc3ccccc3)c(O)c1)=C2O [14-O-BENZYL-GUTTIFERONE A] |  |  | 4.65 | 16.1 | 49 | 23.6 | 96 | 95 | 99.1 |  |  |  |  |
| CCOc1ccc(C(=O)C2=C(O)[C@]3(CC=C(C)C)C[C@H](CC=C(C)C)[C@@](C)(CCC=C(C)C)[C@](CC=C(C)C)(C2=O)C3=O)cc1O [14-O-ETHYL-GUTTIFERONE A] |  |  | 4.79 | 14.9 | 28.2 | 15.8 | 94.7 | 93 | 99.7 |  |  |  |  |
| CC(C)=CCC[C@]1(C)[C@@H](CC=C(C)C)C[C@]2(CC=C(C)C)C(=O)[C@@]1(CC=C(C)C)C(=O)C(C(=O)c1ccc(OC(C)C)c(O)c1)=C2O [14-O-ISOPROPYL-GUTTIFERONE A] |  |  | 4.74 | 14.7 | 25.6 | 15.4 | 95.7 | 94.4 | 99.8 |  |  |  |  |
| COCOc1ccc(C(=O)C2=C(O)[C@]3(CC=C(C)C)C[C@H](CC=C(C)C)[C@@](C)(CCC=C(C)C)[C@](CC=C(C)C)(C2=O)C3=O)cc1O [14-O-METHOXYMETHYL-GUTTIFERONE A] | 0.9 | 4.89 | 4.83 | 10.8 | 74.8 | 13.2 | 96.3 | 92.5 | 99.6 |  |  | 2.7 | 5.32 |
| C#CCOc1ccc(C(=O)C2=C(O)[C@]3(CC=C(C)C)C[C@H](CC=C(C)C)[C@@](C)(CCC=C(C)C)[C@](CC=C(C)C)(C2=O)C3=O)cc1O [14-O-PROPARGYL-GUTTIFERONE A] |  |  | 4.74 | 6.95 | 49.4 | 20.9 | 96 | 92.1 | 99.5 |  |  |  |  |
| CCCOc1ccc(C(=O)C2=C(O)[C@]3(CC=C(C)C)C[C@H](CC=C(C)C)[C@@](C)(CCC=C(C)C)[C@](CC=C(C)C)(C2=O)C3=O)cc1O [14-O-PROPYL-GUTTIFERONE A] |  |  | 4.68 | 2.36 | 13.4 | 5.33 | 94.6 | 94.2 | 99.6 |  |  |  |  |
| C[C@@H]1[C@H](O)[C@@H](C)/C=C/C=C/C=C/C=C/C=C/C=C/C=C/[C@H](O[C@@H]2O[C@H](C)[C@@H](O)[C@H](N)[C@@H]2O)C[C@@H]2O[C@](O)(C[C@@H](O)C[C@@H](O)[C@H](O)CC[C@@H](O)C[C@@H](O)CC(=O)O[C@H]1C)C[C@H](O)[C@H]2C(=O)O [AMPHOTERICIN B] | 11 | 6.48 | 7.52 |  |  |  |  |  |  |  |  |  |  |
| CCN(CC)CCCC(C)Nc1ccnc2cc(Cl)ccc12 (configuration not stated) [CHLOROQUINE] |  | 4.68 |  |  |  |  |  |  |  |  |  |  |  |
| CCCCCCCCCCCCCCCCOP(=O)([O-])OCC[N+](C)(C)C [MILTEFOSINE] | 4 | 4.19 | 4.79 |  |  |  |  |  |  |  |  |  |  |
